Measurements published in ChEMBL document CHEMBL5576135, “Discovery of Indolo[3,2-c]isoquinoline Derivatives as Novel Top1/2 Dual Inhibitors with Orally Efficacious Antitumor Activity and Low Toxicity” (J Med Chem, 2024).
Active and inactive are the calls of the source. No cut-off for these calls is given here.

Assays:
[1] = system: PC-3; experiment: Antiproliferative activity against human PC-3 cells assessed as inhibition of cell growth incubated for 96 hrs by MTT based ELISA; assay type: functional; conditions: PC-3, 96 h
[2] = system: Huh-7; experiment: Antiproliferative activity against human Huh-7 cells assessed as inhibition of cell growth incubated for 96 hrs by MTT based ELISA; assay type: functional; conditions: Huh-7, 96 h
[3] = system: HCT-116; experiment: Antiproliferative activity against human HCT-116 cells assessed as inhibition of cell growth incubated for 96 hrs by MTT based ELISA; assay type: functional; conditions: HCT-116, 96 h
[4] = system: MDA-MB-231; experiment: Antiproliferative activity against human MDA-MB-231 cells assessed as inhibition of cell growth incubated for 96 hrs by MTT based ELISA; assay type: functional; conditions: MDA-MB-231, 96 h
[5] = system: MCF7; experiment: Antiproliferative activity against human MCF7 cells assessed as inhibition of cell growth incubated for 96 hrs by MTT based ELISA; assay type: functional; conditions: MCF7, 96 h
[6] = system: NCI-H2228; experiment: Antiproliferative activity against human NCI-H2228 cells assessed as inhibition of cell growth incubated for 96 hrs by MTT based ELISA; assay type: functional; conditions: NCI-H2228, 96 h
[7] = target: T1, DNA topoisomerase 1 (Homo sapiens) (UniProt P11387); experiment: Inhibition of Topoisomerase I (unknown origin) using pBR322 DNA as substrate at 200 uM incubated for 15 mins by EtBr staining based agarose gel electrophoresis method relative to control
T1 sequence (whole entry): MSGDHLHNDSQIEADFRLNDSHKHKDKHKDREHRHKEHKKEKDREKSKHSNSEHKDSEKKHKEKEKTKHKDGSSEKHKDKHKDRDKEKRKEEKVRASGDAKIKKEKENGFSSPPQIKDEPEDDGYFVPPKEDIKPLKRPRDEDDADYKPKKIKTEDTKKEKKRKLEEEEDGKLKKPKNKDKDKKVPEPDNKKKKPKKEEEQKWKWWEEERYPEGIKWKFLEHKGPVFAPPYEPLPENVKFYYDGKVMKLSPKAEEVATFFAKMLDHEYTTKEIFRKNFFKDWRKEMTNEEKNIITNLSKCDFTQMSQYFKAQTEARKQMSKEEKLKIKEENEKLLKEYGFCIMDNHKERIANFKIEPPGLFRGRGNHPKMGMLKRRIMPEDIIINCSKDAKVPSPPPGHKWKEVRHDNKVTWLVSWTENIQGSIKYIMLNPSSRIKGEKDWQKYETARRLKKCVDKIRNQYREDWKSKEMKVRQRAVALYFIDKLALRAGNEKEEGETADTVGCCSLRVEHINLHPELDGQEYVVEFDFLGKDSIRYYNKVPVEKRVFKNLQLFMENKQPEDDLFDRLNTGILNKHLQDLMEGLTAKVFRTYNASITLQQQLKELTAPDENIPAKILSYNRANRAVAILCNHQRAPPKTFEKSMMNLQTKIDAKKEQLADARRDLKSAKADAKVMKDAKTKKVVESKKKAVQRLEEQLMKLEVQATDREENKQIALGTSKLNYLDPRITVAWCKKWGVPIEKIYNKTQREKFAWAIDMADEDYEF

[8] = target: DNA topoisomerase 2-alpha (Homo sapiens) (UniProt P11388); experiment: Inhibition of Topoisomerase 2 (unknown origin) using pBR322 DNA as substrate at 50 uM incubated for 15 mins by EtBr staining based agarose gel electrophoresis method
Chain of DNA topoisomerase 2-alpha (Homo sapiens) (P11388 whole entry): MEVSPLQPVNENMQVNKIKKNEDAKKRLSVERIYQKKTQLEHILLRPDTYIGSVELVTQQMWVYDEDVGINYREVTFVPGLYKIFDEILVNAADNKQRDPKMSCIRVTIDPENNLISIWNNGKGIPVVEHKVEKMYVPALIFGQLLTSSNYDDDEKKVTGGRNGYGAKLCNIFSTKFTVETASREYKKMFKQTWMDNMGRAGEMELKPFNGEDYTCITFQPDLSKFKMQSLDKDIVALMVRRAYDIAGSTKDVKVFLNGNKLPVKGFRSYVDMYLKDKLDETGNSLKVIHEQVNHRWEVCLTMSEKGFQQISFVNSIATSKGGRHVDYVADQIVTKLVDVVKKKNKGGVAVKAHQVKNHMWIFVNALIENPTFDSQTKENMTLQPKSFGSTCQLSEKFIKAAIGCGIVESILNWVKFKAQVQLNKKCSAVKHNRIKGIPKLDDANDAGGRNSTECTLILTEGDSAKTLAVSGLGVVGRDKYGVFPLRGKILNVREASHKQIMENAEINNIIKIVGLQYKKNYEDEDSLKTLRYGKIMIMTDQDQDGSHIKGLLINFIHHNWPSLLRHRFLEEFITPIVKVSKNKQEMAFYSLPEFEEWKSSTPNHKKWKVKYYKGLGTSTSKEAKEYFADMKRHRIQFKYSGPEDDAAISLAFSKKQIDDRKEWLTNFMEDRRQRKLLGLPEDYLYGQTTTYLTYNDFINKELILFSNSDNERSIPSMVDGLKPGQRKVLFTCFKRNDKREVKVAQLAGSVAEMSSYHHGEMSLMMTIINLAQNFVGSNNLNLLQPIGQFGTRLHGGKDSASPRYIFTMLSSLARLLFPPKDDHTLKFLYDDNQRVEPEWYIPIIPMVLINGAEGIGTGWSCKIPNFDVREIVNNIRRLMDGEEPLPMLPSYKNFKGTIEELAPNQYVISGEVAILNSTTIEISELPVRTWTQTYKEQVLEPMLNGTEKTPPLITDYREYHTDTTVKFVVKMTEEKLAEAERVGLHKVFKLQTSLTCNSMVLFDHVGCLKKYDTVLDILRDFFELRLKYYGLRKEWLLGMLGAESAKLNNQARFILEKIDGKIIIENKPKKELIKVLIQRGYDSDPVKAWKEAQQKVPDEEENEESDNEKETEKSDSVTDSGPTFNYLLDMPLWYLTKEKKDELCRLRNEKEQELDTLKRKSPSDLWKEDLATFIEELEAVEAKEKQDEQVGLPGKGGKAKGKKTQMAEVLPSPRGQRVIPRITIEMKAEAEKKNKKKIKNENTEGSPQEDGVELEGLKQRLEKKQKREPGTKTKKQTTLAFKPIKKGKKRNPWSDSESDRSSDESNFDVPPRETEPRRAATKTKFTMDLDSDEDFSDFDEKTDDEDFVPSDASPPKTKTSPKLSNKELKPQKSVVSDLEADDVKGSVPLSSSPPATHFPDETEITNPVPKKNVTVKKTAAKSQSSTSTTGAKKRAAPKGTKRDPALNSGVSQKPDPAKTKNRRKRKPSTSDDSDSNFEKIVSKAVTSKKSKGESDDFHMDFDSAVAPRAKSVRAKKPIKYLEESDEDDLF

[9] = target: T1, DNA topoisomerase 1 (Homo sapiens); experiment: Inhibition of Topoisomerase I (unknown origin) using pBR322 DNA as substrate at 50 uM incubated for 15 mins by EtBr staining based agarose gel electrophoresis method
[10] = target: DNA topoisomerase 2-alpha (Homo sapiens) (UniProt P11388); experiment: Inhibition of Topoisomerase 2 (unknown origin) using pBR322 DNA as substrate at 100 uM incubated for 15 mins by EtBr staining based agarose gel electrophoresis method relative to control

SMILES | IC50 [1] [µM] | IC50 [2] [µM] | IC50 [3] [µM] | IC50 [4] [µM] | IC50 [5] [µM] | IC50 [6] [µM] | inhibition [7] | inhibition [8] | inhibition [9] | inhibition [10]
COc1ccc2c(c1)c1nc(Cl)c3ccccc3c1n2CCCN1C(=O)CC(C)(C)CC1=O | > 10 | > 10 | > 10 | > 10 | > 10 | > 10 |  |  |  | 
COc1ccc2c(c1)c1nc(Cl)c3ccccc3c1n2CCCNc1ccn([C@@H]2O[C@H](CO)[C@@H](O)[C@@H]2O)c(=O)n1 | > 10 | > 10 | > 10 | > 10 | > 10 | > 10 |  |  |  | 
COc1ccc2c(c1)c1nc(Cl)c3ccccc3c1n2CCCn1c(=O)[nH]cc(F)c1=O | > 10 | > 10 | > 10 | > 10 | > 10 | > 10 |  |  |  | 
O=C(CCCn1c2cc3c(cc2c2[nH]c(=O)c4ccccc4c21)OCO3)NO | 7.14 | > 10 | 4.08 | 4.88 | 6.57 | > 10 | > 95% | Active | Active | > 95%
COc1ccc2c(c1)c1nc(Cl)c3ccccc3c1n2CCCn1cc(C)nc1C | > 10 | > 10 | > 10 | > 10 | > 10 | > 10 |  |  |  | 
COc1ccc2c(c1)c1nc(Cl)c3ccccc3c1n2CCCN1CC[C@@H](O)C1 | > 10 | > 10 | > 10 | > 10 | > 10 | > 10 |  |  |  | 
COc1ccc2c(c1)c1nc(Cl)c3ccccc3c1n2CCCN1CCC[C@@H]1CO | > 10 | > 10 | > 10 | > 10 | > 10 | > 10 |  |  |  | 
COc1ccc2c(c1)c1nc(Cl)c3ccccc3c1n2CCCn1cnc(C)c1 | > 10 | > 10 | > 10 | > 10 | > 10 | > 10 |  |  |  | 
COc1ccc2c(c1)c1nc(Cl)c3ccccc3c1n2CCCN1CCC(CO)CC1 | > 10 | > 10 | > 10 | > 10 | > 10 | > 10 |  |  |  | 
COc1ccc2c(c1)c1nc(Cl)c3ccccc3c1n2CCCNc1ccn([C@H]2C[C@H](O)[C@@H](CO)O2)c(=O)n1 | > 10 | > 10 | > 10 | > 10 | > 10 | > 10 |  |  |  | 
COc1ccc2c(c1)c1nc(Cl)c3ccccc3c1n2CCCN1CCOCC1 | > 10 | > 10 | > 10 | > 10 | > 10 | > 10 |  |  |  | 
COc1ccc2c(c1)c1nc(Cl)c3ccccc3c1n2CCCN1CCC[C@@H](O)C1 | > 10 | > 10 | > 10 | > 10 | > 10 | > 10 |  |  |  | 
COc1ccc2c(c1)c1nc(Cl)c3ccccc3c1n2CCCn1c(=O)c(F)cn([C@@H]2O[C@H](CO)[C@@H](O)[C@H]2O)c1=O | > 10 | > 10 | > 10 | > 10 | > 10 | > 10 |  |  |  | 
COc1ccc2c(c1)c1nc(Cl)c3ccccc3c1n2CCCNc1nc(=O)n([C@@H]2O[C@H](CO)[C@@H](O)[C@H]2O)cc1F | > 10 | > 10 | > 10 | > 10 | > 10 | > 10 |  |  |  | 

These reach a lower IC50 [1]. Values come first.

IC50 [1] [µM] | IC50 [2] [µM] | IC50 [3] [µM] | IC50 [4] [µM] | IC50 [5] [µM] | IC50 [6] [µM] | inhibition [7] | inhibition [8] | inhibition [9] | inhibition [10] | SMILES
0.82 | 3.31 | 1.65 | 2.24 | 1.36 | 2.41 |  |  |  |  | COc1ccc2c(c1)c1nc(Cl)c3ccccc3c1n2CCCN1CCN(C)CC1
2.58 | 3.92 | 1.8 | 1.92 | 3.73 | 4.66 |  |  |  |  | CCOc1ccc2c(c1)c1nc(Cl)c3ccccc3c1n2CCCC(=O)NO
4.11 | 4.13 | 2.5 | 3.69 | 4.35 | 5.31 |  |  |  |  | O=C(CCCn1c2ccc(OC(F)F)cc2c2nc(Cl)c3ccccc3c21)NO
3.14 | 5.76 | 2.87 | 2.98 | 3.87 | 4.28 |  |  |  |  | O=C(CCCn1c2ccccc2c2nc(Cl)c3ccccc3c21)NO
1.01 | 1.5 | 0.62 | 1.09 | 1.45 | 1.05 |  |  |  |  | COc1ccc2c(c1)c1ncc3ccccc3c1n2CCCN(C)C
1.12 | 2.26 | 1.79 | 2.52 | 1.76 | 2.36 |  |  |  |  | COc1ccc2c(c1)c1nc(Cl)c3ccccc3c1n2CCCN1CCN(C(C)C)CC1
1.65 | 2.49 | 0.96 | 1.36 | 1.83 | 1.5 |  |  |  |  | COc1ccc2c3nc(Cl)c4ccccc4c3n(CCCN(C)C)c2c1
4.91 | 6.74 | 2.26 | 5.6 | > 10 | 2.56 |  |  |  |  | CC(C)Oc1ccc2c(c1)c1[nH]c(=O)c3ccccc3c1n2CCCN(C)C
3.26 | 4.57 | 3.68 | 5.04 | 3.61 | 3.1 |  |  |  |  | COc1ccc2c(c1)c1nc(Cl)c3ccccc3c1n2CCCN1CCCC(O)C1 (stereo unspecified)
4.38 | > 10 | 4.05 | 5.9 | 6.84 | 7.03 |  |  |  |  | CN(C)CCCn1c2ccccc2c2[nH]c(=O)c3ccccc3c21
1.22 | 1.77 | 0.82 | 1.2 | 1.64 | 1.28 |  |  |  |  | COc1ccc2c(c1)c1nc(Cl)c3ccccc3c1n2CCCN(C)C
2.67 | 2.99 | 1.33 | 1.95 | 2.75 | 1.51 |  |  |  |  | CN(C)CCCn1c2ccccc2c2nc(Cl)c3ccccc3c21
1.55 | 3.41 | 1.38 | 0.8 | 0.97 | 3.06 |  |  |  |  | CCOc1ccc2c(c1)c1ncc3ccccc3c1n2CCCC(=O)NO
1.32 | 2.55 | 0.55 | 1.92 | 1.41 | 2.03 |  |  |  |  | COc1ccc2c(c1)c1[nH]c(=O)c3ccccc3c1n2CCCN(C)C
3.7 | > 10 | 2.7 | 3.06 | 4.6 | 4.55 |  |  |  |  | COc1ccc2c3nc(Cl)c4ccccc4c3n(CCCC(=O)NO)c2c1
2.57 | 4.43 | 2.14 | 1.78 | 4.56 | 4.86 |  |  |  |  | CC(C)Oc1ccc2c(c1)c1ncc3ccccc3c1n2CCCC(=O)NO
2.7 | 4.36 | 2.55 | 4.1 | 2.96 | 2.73 |  |  |  |  | COc1ccc2c(c1)c1nc(Cl)c3ccccc3c1n2CCCN1CCC(N(C)C)CC1
4.3 | 3.37 | 4.07 | 2.38 | 5.71 | 3.74 |  |  |  |  | O=C(CCCn1c2ccc(OC(F)F)cc2c2ncc3ccccc3c21)NO
1.07 | 2.18 | 1.38 | 2.04 | 1.45 | 2.04 | inactive | inactive | inactive | inactive | COc1ccc2c(c1)c1ncc3ccccc3c1n2CCCN1CCN(C(C)C)CC1
0.74 | 2.24 | 1.17 | 1.68 | 1.12 | 1.84 | inactive | inactive | inactive | inactive | COc1ccc2c(c1)c1ncc3ccccc3c1n2CCCN1CCN(C)CC1
